Columns and labels:
human CSNK1A1 [1] = biological target: T1, human CSNK1A1 (Homo sapiens (Human), UniProt P48729); assay: CSNK1A1 Assay 1 (ADP-Glo, 1 μM ATP); type: biochemical; details: read-out: CSNK1A1 Assay 1 IC50 [mol/l] (median)
Protocol: CSNK1A1-inhibitory activity of compounds of the present invention in presence of 1 μM adenosine-tri-phosphate (ATP) was quantified employing the CSNK1A1 assay as described in the following paragraphs. In essence, the enzyme activity is measured by quantification of the adenosine-di-phosphate (ADP), which is generated as a co-product of the enzyme reaction, via the “ADP-Glo™ Kinase Assay” kit from the company Promega. This detection system works as follows: In a first step the ATP not consumed in the kinase reaction is quantitatively converted to cAMP employing an adenylate cyclase (“ADP-Glo-reagent”), then the adenylate cyclase is stopped and the ADP generated in the kinase reaction converted to ATP which generates in a luciferase-based reaction a glow-luminescence signal (“Kinase Detection Reagent”). Recombinant fusion protein of N-terminal Glutathion-S-Transferase (GST) and full-length human CSNK1A1, expressed by baculovirus infected insect cells and purified via Glutathion affinity chromatography, was purchased from Life Technologies (product no. PV4174) and used as enzyme. As substrate for the kinase reaction the biotinylated peptide Btn-Ahx-[…] (C-terminus in amide form) was used which can be purchased e.g. from the company Biosyntan (Berlin-Buch, Germany).
For the assay 50 nl of a 100 fold concentrated solution of the test compound in DMSO was pipetted into a white 1536-well microtiter plate (Greiner Bio-One, Frickenhausen, Germany), 2 μL of a solution of CSNK1A1 in aqueous assay buffer [50 mM HEPES pH 7.5, 10% (v/v) glycerol, 10 mM MgCl2, 50 mM NaCl, 1 mM dithiothreitol, 0.01% (w/v) bovine serum albumin, 0.01% (v/v) Triton X-100] were added and the mixture was incubated for 15 min at 22° C. to allow pre-binding of the test compounds to the enzyme before the start of the kinase reaction. […] The concentration of CSNK1A1 was adjusted depending of the activity of the enzyme lot and was chosen appropriate to have the assay in the linear range, a typical concentration is 0.15 ng/μL. The reaction was stopped by the addition of 2.5 μL of “ADP-Glo-reagent” (1:1.5 fold diluted with water) and the resulting mixture was incubated at 22° C. for 1 h to convert the ATP not consumed in the kinase reaction completely […]. Subsequently 2.5 μL of the “kinase detection reagent” (1.2 fold more concentrated than recommended by the producer) were added, the resulting mixture was incubated at 22° C. for 1 h and then the luminescence measured with a suitable measurement instrument (e.g. Viewlux™ from Perkin-Elmer). The amount of emitted light was taken as a measure for the amount of ADP generated and thereby for the activity of the CSNK1A1.

human CSNK1A1 [2] = biological target: T1, human CSNK1A1; assay: CSNK1A1 High ATP Assay (ADP-Glo, 1 mM ATP); type: biochemical; details: read-out: CSNK1A1 high ATP assay IC50 [mol/l] (median)
Outline: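 Kinase activity taken as ADP generated, quantified by ADP-Glo luminescence after 1 h ATP depletion and 1 h detection at 22 °C. Enzyme is GST–full-length human CSNK1A1 (insect cell-expressed), pre-bound to compound for 15 min, with phosphopeptide substrate and 1 mM ATP.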

[3] = substrate Btn-Ahx-SGSEGDSESGEEEG

T1 sequence (P48729 whole entry): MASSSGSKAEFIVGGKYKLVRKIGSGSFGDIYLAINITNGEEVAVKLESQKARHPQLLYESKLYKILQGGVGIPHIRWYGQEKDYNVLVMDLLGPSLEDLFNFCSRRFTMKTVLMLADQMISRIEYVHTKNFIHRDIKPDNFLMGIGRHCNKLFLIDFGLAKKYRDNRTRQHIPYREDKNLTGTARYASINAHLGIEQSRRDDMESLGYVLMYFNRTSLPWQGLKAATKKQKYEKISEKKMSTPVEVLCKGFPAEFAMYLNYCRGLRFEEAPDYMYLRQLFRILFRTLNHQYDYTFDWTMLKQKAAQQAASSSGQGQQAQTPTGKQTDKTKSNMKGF

| Compound | IC50 (human CSNK1A1 [1]; substrate Btn-Ahx-[…]) | IC50 (human CSNK1A1 [2]) | IC50 (human CSNK1A1 [1]; [3]) |
| --- | --- | --- | --- |
| C[C@@H](C(=O)Nc1cc(-c2[nH]c3c(c2Nc2ccccc2)C(=O)N(C)CC3)ccn1)c1ccc(F)cc1 (single isomer, unassigned) [Example 6] | 0.0333 µM | 1.6 µM |  |
| CC(C(=O)Nc1cc(-c2[nH]c3c(c2Nc2ccccc2)C(=O)N(C)CC3)ccn1)c1ccc(F)cc1 (centres unmarked) [Example 4, N-[4-(3-anilino-5-methyl-4-oxo-4,5,6,7-tetrahydro-1H-pyrrolo[3,2-c]pyridin-2-yl)pyridin-2-yl]-2-(4-fluorophenyl)propanamide] |  | 0.115 µM | 0.0112 µM |
| C[C@H](C(=O)Nc1cc(-c2[nH]c3c(c2Nc2ccccc2)C(=O)N(C)CC3)ccn1)c1ccc(F)cc1 (single isomer, unassigned) [Example 5] | 0.00362 µM | 0.0634 µM |  |
| CN1CCc2[nH]c(-c3ccnc(NC(=O)Cc4ccc(F)cc4)c3)c(Nc3ccccc3)c2C1=O [Example 1, N-[4-(3-anilino-5-methyl-4-oxo-4,5,6,7-tetrahydro-1H-pyrrolo[3,2-c]pyridin-2-yl)pyridin-2-yl]-2-(4-fluorophenyl)acetamide] |  | 0.0284 µM | 0.00254 µM |

Source: patent US12227501B2, “3-amino-2-[2-(acylamino)pyridin-4-yl]-1,5,6,7-tetrahydro-4h-pyrrolo[3,2-c]pyridin-4-one as CSNK1 inhibitors” (Bayer Aktiengesellschaft, priority 2019, dated 2025)
